These are literature values, as cited in PMC11859340, “The Therapeutic Potential of Spirooxindoles in Cancer: A Focus on p53–MDM2 Modulation” (Pharmaceuticals, 2025).

The subject of one series is MCF7. The arrangement: method as in PMID 29210587. To be noted: at 20 μM, MTT.
Series [1] deals with MDM2. The arrangement: method as in PMID 29210587. To be noted: at 20 μM, HTRF method.
The next series deals with ZR-75-1 (wild-type p53). Details: method as in PMID 29210587. The conditions noted are these: at 20 μM, MTT.
For series [2], the system named is BT-474 (mutated-type p53). Details: method as in PMID 29210587. The conditions noted are these: at 20 μM, MTT.
The subject of another series is A2870s. The arrangement: method as in PMID 28027532. The conditions noted are these: MTT; read-out: IC50 against A2870s.
A further series relates to HeLa (cervical). The arrangement: method as in PMID 37935912. To be noted: SRB; read-out: IC50 against HeLa.
In another series the test system is HCT116 “colon”. The arrangement: method as in PMID 28027532. To be noted: MTT; read-out: IC50 against HCT116.
The test system of series [3] is HepG2 (liver). The arrangement: method as in PMID 30802707. The conditions noted are these: MTT; read-out: IC50 against HepG2.
In the next series the test system is A549 (lung). Details: method as in doi:10.1080/10426507.2020.1723590. To be noted: MTT; read-out: IC50 against A549.
Another series deals with VERO-B (normal) cells. The conditions noted are these: read-out: IC50 against VERO-B; MTT, normal cells.
Series [4] deals with HCT116 (colon). Details: method as in PMID 30508794. The conditions noted are these: MTT; read-out: IC50 against HCT116.
The next series relates to MCF7 “breast”. Details: method as in PMID 28027532. To be noted: MTT; read-out: IC50 against MCF7.
For the next series, the system named is PC-3 (prostate). The arrangement: method as in PMID 30802707. The conditions noted are these: MTT; read-out: IC50 against PC-3.
For a further series, the system named is H1975 “lung”. Details: method as in PMID 28027532. The conditions noted are these: MTT; read-out: IC50 against H1975.
The subject of series [5] is HepG2 (liver). Details: method as in PMID 30508794. To be noted: MTT; read-out: IC50 against HepG2.
The test system of another series is A2870T “ovarian”. Details: method as in PMID 28027532. The conditions noted are these: MTT; read-out: IC50 against A2870T.
On the set-up of series [6]: method as in PMID 30508794. To be noted: MTT; read-out: IC50 against PC3.
The next series deals with A549 “lung”. Details: method as in PMID 28027532. The conditions noted are these: MTT; read-out: IC50 against A549.
The test system of series [7] is HCT116 (colon). The arrangement: method as in PMID 30802707. To be noted: MTT; read-out: IC50 against HCT116.
Another series relates to CT26. The arrangement: method as in PMID 28027532. To be noted: MTT; read-out: IC50 against CT26.
The subject of series [8] is HEK293T (embryonic kidney). The arrangement: method as in doi:10.1080/10426507.2020.1723590. The conditions noted are these: MTT; read-out: IC50 against HEK293T.
Series [9] deals with HepG2 (hepatocellular wild p53 type). Details: method as in PMID 24268795. The conditions noted are these: read-out: GI50 against HepG2.
In a further series the test system is SW620 (mutant p53). Details: method as in PMID 24268795. To be noted: read-out: GI50 against SW620.
For series [10], the system named is HCT116 (p53^−/−). Details: method as in PMID 24268795. The conditions noted are these: read-out: GI50 against HCT116 (p53^−/−).
In series [11] the test system is HCT116 (p53^+/+). The arrangement: method as in PMID 24268795. The conditions noted are these: read-out: GI50 against HCT116 (p53^+/+).
In series [12] the test system is transplanted cancer (lung cancer). Details: method as in PMID 32738990. To be noted: 100, 200, 400 mg/kg.
The subject of a further series is MCF7 “wild p53”. Details: method as in PMID 37731691. To be noted: MTT; read-out: IC50 against MCF7.
In the next series the test system is MCF 10A. Details: method as in PMID 37731691. The conditions noted are these: MTT; read-out: IC50 against MCF 10A.
The test system of the next series is MDA-MB-231 “mutant p53”. Details: method as in PMID 37731691. The conditions noted are these: MTT; read-out: IC50 against MDA-MB-231.
Series [13] deals with MDM2. The arrangement: method as in PMID 31047751. The conditions noted are these: fluorescence polarization assay; read-out: Ki, MDM2 inhibitory effect.
In the next series the test system is lung A549. The arrangement: method as in PMID 31047751. The conditions noted are these: CCK-8.
The next series deals with colon HCT116. The arrangement: method as in PMID 31047751. To be noted: CCK-8.
The test system of a further series is breast MCF7. Details: method as in PMID 31047751. The conditions noted are these: CCK-8.
For series [14], the system named is HepG2 (liver, wild p53 type). Details: method as in doi:10.1039/C5MD00450K. The conditions noted are these: read-out: GI50 against HepG2.
In series [15] the test system is SW620 (colon, mutant p53). Details: method as in doi:10.1039/C5MD00450K. To be noted: read-out: GI50 against SW620.
The subject of series [16] is HCT116 (p53^+/+). Details: method as in doi:10.1039/C5MD00450K. To be noted: read-out: GI50 against HCT116 (p53^+/+).
Series [17] has as its system HCT116 (p53^−/−). The arrangement: method as in doi:10.1039/C5MD00450K. To be noted: read-out: GI50 against HCT116 (p53^−/−).

The structures appear in SMILES notation. Read-outs that look alike come from different tables or passages of the source.

Turning to `C[C@H]1CN(C(=O)OC(C)(C)C)[C@@]2(C(=O)Nc3cc(Cl)ccc32)[C@@H]([N+](=O)[O-])[C@@H]1c1ccc(Cl)cc1`, in the series on MCF7, the “% inhibition, MCF7” value is reported as 93.03%. Further, in the series with MDM2 [1], the “inhibitory activity against MDM2” value is given as 84.86. The “% inhibition, ZR-75-1” value in the series with ZR-75-1 (wild-type p53) was 82.28%. Moreover, the “% inhibition, BT-474” value in series [2] was 50.00%.

In the case of `N.N.[Cl][Pt][Cl]` [cisplatin, reference compound], the IC50 with A2870s is 20.9 µM; in the series with HeLa (cervical), 2 ± 0.3 µM; in the series on HCT116 “colon”, 17.4 µM; in the series on HepG2 (liver) [3], 5.5 ± 1 µM; with A549 (lung), 44.1 ± 3.9 µM; in the series on VERO-B (normal) cells, 5 ± 0.2 µM. The IC50 in the series with HCT116 (colon) [4] is 12.6 ± 0.5 µM; with MCF7 “breast”, 7.8 µM; in the series with PC-3 (prostate), 5 ± 0.5 µM; in the series with H1975 “lung”, 9.7 µM; with HepG2 (liver) [5], 5.5 ± 0.3 µM; with A2870T “ovarian” it was 27.3 µM. The half-maximal inhibitory concentration (IC50) in [6] is 5 ± 0.56 µM; with A549 “lung”, 15.6 µM; with HCT116 (colon) [7], 12.6 ± 2 µM; in the series on CT26 it was 23.7 µM; in series [8], 12.4 ± 3.9 µM.

As for `Cc1ccc(C2=NO[C@@]3(C(=O)Nc4cc(Cl)ccc43)[C@@H]2c2ccccc2)cc1`, the GI50 in series [9] is 29.1 ± 1.09 µM; in the series with SW620 (mutant p53) it was 31.6 ± 1.05 µM; in the series with HCT116 (p53^−/−) [10] it was 30.6 ± 1.12 µM; in the series on HCT116 (p53^+/+) [11], 26.6 ± 1.07 µM.

On to `CN1C(=O)C2(C(C#N)=C(N)Oc3cc4oc(-c5ccccc5)cc(=O)c4c(O)c32)c2cc(Br)ccc21` (stereo not shown) [compound 128], for which the “transplanted cancer in mice” value in series [12] is on record as “Inhibition of transplanted cancer in mice”.

In the case of `O=C1C=CC(OCc2cn(CCN3C(=O)[C@]4(c5ccc(Br)cc53)[C@@H](c3ccccc3)C(c3ccccc3)=NN4c3ccccc3)nn2)(c2cc(=O)c3c(O)cc(O)cc3o2)C=C1` [105 (X = (CH2)2)], the IC50 with MCF7 “wild p53” was 2.92 µM; with MCF 10A it was 4.56 µM; with MDA-MB-231 “mutant p53” it was 1.08 µM.

Regarding `O=C(C1=CCC(c2ccc(Br)cc2)C2(S1)C(=O)Nc1ccccc12)c1ccccc1` (stereo not shown) [150 (R^1 = H, R^2 = Ph, R^3 = 4-BrC6H4)], on MDM2 [13], the Ki is 43.8 µM. Also, the IC50 in the series with lung A549 (read-out: IC50 against A549) is 2.1 µM; in the series on colon HCT116 (read-out: IC50 against HCT116) it was 1.7 µM; in the series on breast MCF7 (read-out: IC50 against MCF7), 6.8 µM. In the series on lung A549 (at 10 μM), the “% inhibition, A549” value was 75.1%. The “% inhibition, HCT116” value in the series with colon HCT116 (at 10 μM) is given as 91.9%. Also, the “% inhibition, MCF7” value in the series with breast MCF7 (at 10 μM) is 69.4%.

With `O=C1Nc2ccc(Br)cc2[C@]12ON=C(c1cccc(Cl)c1)N2c1cccc(Cl)c1` [110 (R^1 = 5-Br, R^2 = 3-Cl, R^3 = 3-Cl)], the GI50 was 2.1 µM in [14], 2.1 ± 0.3 µM in [15], 2 µM with HCT116 (p53^+/+) [16] and 2.9 ± 0.2 µM with HCT116 (p53^−/−) [17].
